Measurements as given in patent US7915285B2, “Method for treating drug and behavioral addictions” (priority 2005, dated 2011).
Read-outs that look alike come from different tables or passages of the source.

Tests used:
[1] = Pharmacokinetics and tissue distribution of ibudilast in rat; format: in vivo
Experimental: Ibudilast pharmacokinetics and distribution into plasma, muscle, brain, and spinal cord were assessed as follows.
(§1) Drug stability and concentration were validated by HPLC/MS/MS.
(§2) Pathogen-free adult male Sprague-Dawley rats (280-350 g; Harlan Labs) were used in all experiments. Rats were housed in temperature (23+/−3° C.) and light (12:12 light: dark; lights on at 0700 hr) controlled rooms with standard rodent chow and water available ad libitum. Behavioral testing was performed during the light cycle.
Calibration standards in plasma were prepared by diluting each 0.5 mg/ml stock 1 in 100 into rat plasma to 5000 ng/ml (5 μl+495 μl), and then diluted further to 2.29 ng/ml by 3-fold serial dilution with plasma. Standards were used as low, mid and high QC samples, respectively.
Calibration standards, QC and plasma study samples were prepared for HPLC injection by precipitating 25 μl of plasma with three volumes (75 μl) of ice cold acetonitrile containing 50 ng/ml diphenhydramine and 100 ng/ml dextromethorphan as the internal standards. Tissue study samples were prepared for HPLC injection by adding 1 μl of water per mg of tissue plus three volumes (relative to water) of ice cold acetonitrile containing 50 ng/ml diphenhydramine and 100 ng/ml dextromethorphan as the internal standards, then homogenizing with an electric homogenizer.

[2] = Previous range-finding tolerability studies, intraperitoneal; format: in vivo; conditions: twice a day (bid) for multiple days
[3] = test system: naloxone-precipitated morphine withdrawal syndrome; assay: Rat model of naloxone-precipitated morphine withdrawal, total withdrawal score (Example 2); format: in vivo
Experimental: as §1
as §2, with “(23[…]3°” for “(23+/−3°”, “cycle. Approval of the Institutional Animal Care and Use Committee at University of Colorado was obtained for all procedures.” for “cycle.”
The schedule for morphine treatment (via subcutaneous injections) was as follows: Day 1: 5 mg/kg at 1000 hr, 5 mg/kg at 1300 hr, 5 mg/kg at 1700 hr; Day 2: 5 mg/kg at 1000 hr, 12.5 mg/kg at 1700 hr; Day 3: 15 mg/kg at 1000 hr; Day 4: 17.5 mg/kg at 1000 hr; Day 5: 5 mg/kg at 1000 hr, 17.5 mg/kg at 1200 hr.
(§3) The withdrawal signs measured were: (1) abnormal posturing (an animal presses his abdomen and lower jaw against the floor of the cage); (2) exploration (an animal circles around the cage, thrusting its head in several directions and examining its surroundings); (3) jumping; (4) cleaning (grooming); (5) rearing (an animal stands on its hindpaws with the forepaws off the ground).
Withdrawal scores were measured by blinded observers in 10 minute blocks for 60 minutes immediately after naloxone precipitated withdrawal was initiated. […]

[4] = test system: dopamine release in the nucleus accumbens; assay: In vivo microdialysis of nucleus accumbens dopamine (Example 3); parameters: species or system rat
Experimental: (§4) Dopamine release in the nucleus accumbens is thought to mediate the “reward” associated with drugs of abuse. […] After 3 baseline samples (20 minute inter-sample interval), morphine was administered to all rats. Dialysis samples were collected at 20 minute intervals for 180 minutes. To test behavioral withdrawal and reversal of morphine-induced dopamine, all rats were administered the opioid antagonist naloxone after the 60 minute sample time was completed.

[5] = test system: naloxone-induced behavioral withdrawal signs; assay: Naloxone-induced withdrawal behavior during microdialysis (Example 3); format: in vivo, rat; conditions: 7.5 mg/kg b.i.d. with morphine, vs PEG-saline vehicle and morphine, FIG. 4
Experimental: as §4

[6] = format: in vivo, rat; conditions: normalized to weight at start of morphine
[7] = test system: naloxone precipitated withdrawal behaviors; assay: Naloxone precipitated withdrawal behaviors (Example 4); format: in vivo, rat; conditions: for naloxone precipitated withdrawal behaviors: 60 minute observation period, FIG. 5
Experimental: as §3
Withdrawal scores were measured by blinded observers in 10 minute blocks for 60 minutes immediately after naloxone precipitated withdrawal was initiated. The observations were pooled from 1-10 minutes, 11-20 minutes, 21-30 minutes, 31-40 minutes, 41-50 minutes, 51-60 minutes for each individual rat after naloxone administration, giving six time points. The average score (for each time point) for all animals within an experimental group was reported as the “total withdrawal score” in FIGS. 2A-2D.

[8] = Spontaneous opioid withdrawal induced weight loss (Example 5); format: in vivo, rat; conditions: FIG. 9
Experimental: Pathogen-free adult male Sprague-Dawley rats were used in all experiments. Rats (350-375 g at the time of arrival; Harlan Labs, Madison, Wis.) were housed in temperature (23±3° C.) and light (12:12 light:dark; lights on at 0700 hours) controlled rooms with standard rodent chow and water available ad libitum. All procedures were approved by the Institutional Animal Care and Use Committee at the University of Colorado at Boulder. Upon arrival male Sprague Dawley rats (300-400g) were housed individually and allowed to acclimatize to the animal colony telemetry room for one week. 5×90 minute sessions of handling by investigators were performed during the following week. Rats were anesthetized with isoflurane, and emitters for measuring core body temperature ([…], Sun River, Oreg.) were implanted in the peritoneal cavity. Gross motor movement was assessed by telemetry using the same emitters used for recording core body temperature. The emitter had to move for activity to be counted; thus, stationary movements such as grooming were not counted. Activity counts and core body temperature were measured every minute and movement averaged over 120 minutes was calculated (thereby smoothing the data). […] Body weights were recorded prior to each dosing session to allow for accurate dose calculations and to track the opioid induced weight loss (also occurred on days when no dosing was conducted).

[9] = test system: nucleus accumbens dopamine; assay: Nucleus accumbens dopamine microdialysis after 5 days of morphine and ibudilast (Example 6); format: in vivo, rat; conditions: for nucleus accumbens dopamine levels: 7.5 mg/kg
Experimental: Pathogen-free adult male Sprague-Dawley rats were used in all experiments. Rats (300-325 g at the time of arrival; Harlan Labs, Madison, Wis.) were housed in temperature (23±3° C.) and light (12:12 light:dark; lights on at 0700 hours) controlled rooms with standard rodent chow and water available ad libitum. All procedures were approved by the Institutional Animal Care and Use Committee at the University of Colorado at Boulder. Upon arrival male Sprague Dawley rats (300-400 g) were housed in pairs and allowed to acclimatize to the animal colony for one week. 5×90 minute sessions of handling by investigators and animal acclimatization to the microdialysis environment were performed during the following week.
Microdialysis guide cannula implantation was performed under halothane anaesthesia. CMA 12 guide cannulae (CMA Microdialysis) were aimed at either the right or left nucleus accumbens (AP=+1.7, LM=±0.8, DV=−6.0) in a counterbalanced fashion. Coordinates were from bregma using the atlas of Paxinos and Watson (1998). The guide cannulae and a tether screw (CMA Microdialysis) were anchored to the skull with three jeweler's screws and dental cement. Rats were individually housed after surgery and allowed to recover for one week.
Animals then began a 7 day dosing regimen (groups of 6 animals at a time, n=10 per treatment group). […] Body weights were recorded prior to each dosing session to allow for accurate dose calculations and to track the opioid induced weight loss.
Microdialysis probes (CMA 12, MW cut-off 20,000 Da, 2 mm active membrane) were inserted into the guide cannulae and rats were placed in separate Plexiglas infusion bowls with food and water available ad libitum. […] Dialysates were analyzed by HPLC within 2 weeks of collection.
Dopamine in the dialysates was determined using an ESA 5600A COULARRAY detector with an ESA 5014B analytical cell and an ESA 5020 guard cell connected to an ESA HR80 column (C18, […], 80×3 mm) which was maintained at 30° C. […] Quantitative comparisons were made with external standards (Sigma-Aldrich, St Louis, Mo.) that were run each day. […]

activated microglia = conditions: dose-dependent; cited from earlier work
[10] = test system: nucleotide phosphodiesterase (PDE); conditions: non-selective PDE inhibitor; cited from earlier work
[11] = administered systemically; cited from earlier work
[12] = test system: microglial activation marker CD11b; assay: Brain immunohistochemistry and densitometry of microglial activation marker (Example 4); format: in vivo, rat; conditions: chronic morphine administration, FIG. 6
Experimental: Immunoreactivity for OX-42 (antibody that recognizes complement type 3 receptors, e.g., CD11b) and/or glial fibrillary acidic protein (GFAP), microglial and astrocyte activation markers, respectively, were assessed. Sections (20 μm) were treated with 0.3% H2O2 in Tris-buffered saline (TBS) for 20 minutes at room temperature to suppress endogenous peroxidase activity. Sections were then incubated overnight at 4° C. in monoclonal mouse anti-rat OX-42 (1:100; Pharmingen, San Diego, Calif.) or monoclonal mouse anti-rat GFAP antibody (1:200; Chemicon, Temecula, Calif.) in TBS with 2% normal goat serum and 0.5% Triton-X-100. Subsequently, sections were incubated with the appropriate secondary biotinylated antibodies (1:400; Jackson ImmunoResearch, West Grove, Pa.) for 2 hours at room temperature, incubated in avidin -biotin complex solution (ABC; 1:200; Vector Laboratories, Burlingame, Calif.) for 2 hours at room temperature, followed by reaction with 0.5 mg/ml 3,3′-diaminobenzidine tetrahydrochloride (DAB; Sigma). Finally, sections were dried, dehydrated, and coverslipped with Permount. Staining was evaluated by light microscopy. Densitometry of immunohistochemical staining was subsequently evaluated using computer software (NIH image).

interleukin-1 mRNA = assay: mRNA analysis of brain nuclei by real-time PCR (Example 4); format: in vivo, rat; conditions: morphine; dorsal and ventral periaqueductal grey region, FIG. 8
Experimental: Following scoring of withdrawal behaviors animals received an intraperitoneal injection of 0.8 ml of 50 mg/ml sodium pentobarbital, and once anesthetized, animals were transcardially perfused. Half of each treatment group were perfused with saline and half with 4% paraformaldehyde. Spinal cord and brains were collected (saline perfusion for protein and mRNA quantification and paraformaldehyde perfusion for immunohistochemistry). Samples collected from saline perfused animals were flash frozen in liquid nitrogen and stored at −80° C. Paraformaldehyde perfused samples were stored in 4% paraformaldehyde for 48 hours and then transferred to 30% sucrose (0.1% azide) until tissue sectioning.
Amplification of cDNA was performed using the [sequence] […] Linearity and efficiency of PCR amplification were assessed using standard curves generated by increasing amounts of cDNA. SYBR green l fluorescence (PCR product formation) was monitored in real time using the MYIQ single color real-time PCR detection system (Bio-Rad). […] Linearity and efficiency of PCR amplification were assessed using standard curves generated by increasing amounts of cDNA. SYBR green 1 fluorescence (PCR product formation) was monitored in real time using the MYIQ single color real-time PCR detection system (Bio-Rad). […]

CC(C)C(=O)c1c(C(C)C)nn2ccccc12 [ibudilast, 2-methyl-1-(2-(1-methylethyl)pyrazolo(1,5-a)pyridin-3-yl)1-propanone]
plasma concentration profile ([1]; i.p. 5 mg/kg): declined from Cmax in a biphasic manner | tissue distribution ([1]; i.p. 5 mg/kg, muscle, brain, spinal cord): well distributed to peripheral (e.g. muscle) and central (e.g. brain and spinal cord) tissues | Cmax ([1]; male, Sprague-Dawley, plasma and CNS tissues (brain, spinal cord), ip, i.p. ~5 mg/kg, in 15% ethanol/saline, read-out: maximal concentration (Cmax) in plasma and CNS tissues): ~1000 ng/mL | half-life ([1]; male, Sprague-Dawley, plasma, muscle, brain, spinal cord (all tissue compartments), ip, i.p. 5 mg/kg, all tissue compartments, read-out: elimination half-life): 1.67 to 2.32 h | well-tolerated dose level [2]: up to 15 mg/kg | total withdrawal score ([3]; high dose 7.5 mg/kg i.p. bid, FIG. 2B, 2D): remarkably attenuated behavioral signs of withdrawal | total withdrawal score ([3]; low dose 2.5 mg/kg i.p. bid, vs saline controls, FIG. 2C): no effect compared to saline controls | dopamine release into the nucleus accumbens in response to morphine ([4]; 7.5 mg/kg b.i.d. co-administered with morphine across 5 days, FIG. 3): suppressed release of dopamine into the nucleus accumbens in response to morphine | basal levels of dopamine ([4]; 7.5 mg/kg b.i.d., baseline samples): did not decrease basal levels of dopamine | naloxone-induced behavioral withdrawal signs [5]: suppressed naloxone-induced behavioral withdrawal signs | morphine induced weight loss on day 7 ([6]; 2.5 mg/kg ibudilast): 16.6 ± 5.7 g | morphine induced weight loss on day 7 ([6]; 7.5 mg/kg ibudilast): 13.3 ± 7.1 g | naloxone precipitated withdrawal behaviors ([7]; 2.5 mg/kg): dramatic reduction of naloxone precipitated withdrawal behaviors | naloxone precipitated withdrawal behaviors ([7]; 7.5 mg/kg): dramatic reduction of naloxone precipitated withdrawal behaviors | individual withdrawal behaviors ([7]; on an individual behavior basis): reductions in all behaviors except for rearing, exploration and wet dog shakes | spontaneous opioid withdrawal induced weight loss ([8]; higher dose (7.5 mg/kg twice daily)): substantially attenuated weight loss | spontaneous opioid withdrawal induced weight loss ([8]; lower dose (2.5 mg/kg twice daily)): only a trend towards improved weight change | nucleus accumbens dopamine levels ([9]; during naloxone precipitated opioid withdrawal, FIG. 10): reduced nucleus accumbens dopamine levels | nucleus accumbens dopamine levels ([9]; following morphine administration, spontaneous opioid withdrawal, FIG. 11): also reduced nucleus accumbens dopamine levels | morphine induced nucleus accumbens dopamine increases ([9]; morphine-dependent animals, during morphine administration and withdrawal, FIGS. 10 and 11): dramatically reduced morphine induced nucleus accumbens dopamine increases | production of inhibitory cytokine and neurotrophic factors (activated microglia): enhanced the production of the inhibitory cytokine, IL-10, and additional neurotrophic factors | production of pro-inflammatory mediators (activated microglia): suppressed the production of nitric oxide (NO), reactive oxygen species, interleukin (IL)-1β, IL-6, and tumor necrosis factor (TNF) | PDE inhibition profile [10]: most active against PDE-3, PDE-4, PDE-10, and PDE-11 | blood-brain barrier passage [11]: crosses the blood-brain barrier when administered systemically

CN1CC[C@]23c4c5ccc(O)c4O[C@H]2[C@@H](O)C=C[C@H]3[C@H]1C5 [morphine]
CD11b staining after chronic administration [12]: visible upregulation of the microglia activation marker CD11b | interleukin-1 mRNA (interleukin-1 mRNA): dramatic increase in interleukin-1 mRNA in the dorsal, but not the ventral periaqueductal grey region

C=CCN1CC[C@]23c4c5ccc(O)c4O[C@H]2C(=O)CC[C@@]3(O)[C@H]1C5 [naloxone]
morphine-induced dopamine release after opioid antagonist ([4]; naloxone given after the 60 minute sample): reversed the morphine-induced dopamine release
